Tests used:
[1] = test system: hepatic stellate cells; assay: TGFβ-mediated hepatic stellate cell activation, western blot of αSMA and fibronectin; format: cell-based, human; conditions: HSCs, TGFβ 48 hours, DHX 10 μM
Experimental: HSCs were stimulated with TGFβ for 48 hours+/−DHX (10 μM) prior to total protein isolation and western blot analysis of αSMA and Fibronectin. N=3 (***p<0.001, **p<0.01, *p<0.05 vs. Control+TGFβ).
Western Blotting: Cells were plated in EMEM containing 10% FBS overnight. Media was exchanged with EMEM containing 0.1% FBS for 24 hours. Prior to protein isolation cells were treated with the indicated concentration of compounds for the indicated time. Total protein was isolated using RIPA buffer (pH 8.0) containing Pierce Phosphatase Inhibitor (Thermo) and Halt Protease Inhibitor Cocktail (Thermo). Lysate total protein concentration was determined using Pierce BCA Protein Assay Kit (Thermo) and samples were run on a 10% polyacrylamide gel. Blots were incubated overnight with primary antibodies: pYAP (Ser 127, Cell Signaling D9W21), YAP/TAZ (Cell Signaling D24E4), GAPDH (Cell Signaling 14C10), HSC70 (Santa Cruz sc-7298), αSMA (Abcam ab5694), and fibronectin (Santa Cruz sc-9068) diluted 1:1000 in Li-Cor Odyssey Blocking Buffer. Blots were washed with TBS-Tween before 60 minute incubation with IR-dye-conjugated secondary antibodies (Li-Cor) diluted 1:10,000. Plates were imaged via a Li-Cor OdysseyXL system with quantification performed via densitometry. […]

[2] = test system: cAMP; assay: cAMP assay (cAMP-Glo) in fibroblasts; format: cell-based, human; conditions: IPF patient-derived fibroblasts, 20 minutes, 10 μM
Experimental: FIG. 9 contains a bar graph showing cAMP measured in IPF patient-derived fibroblasts treated for 20 minutes with DHX (10 μM)+/−SCH 39166 (3 μM). N=3 (**p<0.01 vs. 0.1% DMSO vehicle control).
N=3, IMR-90 lung fibroblasts.
cAMPAssay: IPF patient derived fibroblasts were plated in EMEM containing 10% FBS overnight. […] 20 minutes prior to cell lysis media was removed and cells were treated with “induction buffer” containing nonselective phosphodiesterase inhibitors and the indicated concentration of compound(s). Luminescence was measured on a Flexstation 3 (Molecular Devices) plate reader.

[3] = test system: normal healthy mice; conditions: mouse, in vivo
Experimental: Bleomycin model of pulmonary fibrosis was used to test the efficacy of DHX in vivo in experimental fibrosis. Mice were administered bleomycin intratracheally at Day 0. On Day 10 injury and inflammation typically subside and fibrosis is ongoing. At Day 10 mice were randomized into two groups, one receiving DHX (5 mg/kg once daily i.n.) and the other, vehicle control. […] At day 24 the mice were sacrificed and compared using histology, hydroxyproline and qPCR. […] To assess whether DHX adversely effects lung remodeling in the absence of fibrosis, we also exposed control mice to DHX following an identical time course and route of exposure.

[4] = test system: bile duct ligation (BDL)-mediated fibrosis; assay: Bile duct ligation model of liver fibrosis; format: in vivo, mouse; conditions: BDL mice, DHX 5 mg/kg i.p. daily Day 7 for 14 days
Experimental: Bile Duct Ligation: BDL was performed as previously described. Briefly, 8-10 weak old female C57BL/6N underwent either BDL or sham surgery. Mice were anesthetized on Day 0 following IACUC protocol, and the bile duct was ligated using sterile 3/0 silk ligatures. Sham surgery was performed by passing a silk ligature under the bile duct. Starting on Day 7, DHX (5 mg/kg) or vehicle control was administered everyday intraperitoneally (i.p.) for 14 days. Following the final DHX treatment, mice were sacrificed and the livers harvested for analysis of fibrosis.
Histological Scoring: Five μm thick sections were cut from Paraffin embedded lung tissues, and the sections were stained either with hematoxylin and eosin (H&E) or with Masson's Trichrome stain kit (Abcam). […] The severity of interstitial and peribronchiolar lung immature and mature fibrosis was estimated on a numerical scale according to Ashcroft et al. For scoring purposes, all H&E stained slides were systematically scanned at 100× magnification and successive 100× fields were scored. […] The predominant score for each field was recorded. The mean of all scores was calculated for each case. Liver trichrome stained sections were computationally measured using Image J software. […]
Hydroxyproline: Hydroxyproline content was measured using a hydroxyproline assay kit (Biovision) according to the manufacture's instruction with slight modification. […]

[5] = test system: YAP; assay: Western blotting of YAP serine 127 phosphorylation; format: cell-based, human; conditions: IMR-90 cells, 10 μM, 2 hours
Experimental: IMR-90 cells cultured for 24 hours in media containing 0.1% FBS, treated 2 hours prior to fixation. N=3 (***p<0.001 vs. 0.1% DMSO vehicle control).
Western Blotting: Cells were plated in EMEM containing 10% FBS overnight. Media was exchanged with EMEM containing 0.1% FBS for 24 hours. Prior to protein isolation cells were treated with the indicated concentration of compounds for the indicated time. Total protein was isolated using RIPA buffer (pH 8.0) containing Pierce Phosphatase Inhibitor (Thermo) and Halt Protease Inhibitor Cocktail (Thermo). Lysate total protein concentration was determined using Pierce BCA Protein Assay Kit (Thermo) and samples were run on a 10% polyacrylamide gel. Blots were incubated overnight with primary antibodies: pYAP (Ser 127, Cell Signaling D9W21), YAP/TAZ (Cell Signaling D24E4), GAPDH (Cell Signaling 14C10), HSC70 (Santa Cruz sc-7298), αSMA (Abcam ab5694), and fibronectin (Santa Cruz sc-9068) diluted 1:1000 in Li-Cor Odyssey Blocking Buffer. Blots were washed with TBS-Tween before 60 minute incubation with IR-dye-conjugated secondary antibodies (Li-Cor) diluted 1:10,000. Plates were imaged via a Li-Cor OdysseyXL system with quantification performed via densitometry.

## Oc1cc2c(cc1O)[C@H]1c3ccccc3CN[C@@H]1CC2 (racemic) [Dihydrexidine]
[1]
  TGFβ-mediated HSC expression of SMA and FN protein (western blotting): significant reversal of both
[2]
  cAMP: elevated cAMP
[3]
  body weight: did not alter body weight
  expression of Ctgf, Col1a1, Acta2, and Fn1: did not alter expression of Ctgf, Col1a1, Acta2, and Fn1
  lung collagen deposition: did not alter lung collagen deposition
  lung histology: did not alter lung histology
[4]
  collagen deposition (hydroxyproline): trend toward reduced collagen deposition
  histological fibrosis (trichrome): significantly improved histological fibrosis
[5]
  YAP serine 127 phosphorylation: promoted YAP serine 127 phosphorylation
